SMILES strings stand for the structures. Counter-ions that a name gives are not always drawn.

The test system of this assay is Acinetobacter baumannii ATCC17961. Description: Antimicrobial susceptibility testing: 90% growth inhibitory concentration (IC90) determination. The assay is classed as cell-based. As to conditions: Acinetobacter baumannii, ATCC17961, 16 h, 90% growth inhibitory concentration against Acinetobacter baumannii ATCC17961, Iso-Sensitest broth, OD 600 nm over 16 h; read-out: ATCC 17961 IC90. Put shortly:
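OD600 monitored each minute over 16 h at 35±2° C for bacteria (~5×10^5 CFU/mL final) in Iso-Sensitest medium with 10-point twofold compound series (e.g. 10-0.0195 μM final). Concentration giving 90% growth inhibition in log phase reported as IC90.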
The IC90 is the point of the concentration-response curve where the effect stands at 90%. Turning to `Cn1c(-c2cn(-c3ccc4[nH]ccc4n3)nc2C(F)(F)F)cnc1C(=O)Nc1ccc(C(=O)N2CCN(C(=O)[C@H]3CC[N@+](CC(=O)O)(CC4CNC4)CC3)CC2)c(Cl)c1` [Example 27, cis-2-[1-(azetidin-3-ylmethyl)-4-[4-[2-chloro-4-[[1-methyl-5-[1-(1H-pyrrolo[3,2-b]pyridin-5-yl)-3-(trifluoromethyl)pyrazol-4-yl]imidazole-2-carbonyl]amino]benzoyl]piperazine-1-carbonyl]piperidin-1-ium-1-yl]acetic acid. 1:1 2,2,2-trifluoroacetate], the IC90 worked out at 360 nM. Next, `C[C@@H](O)c1cc2nc(-n3cc(-c4cnc(C(=O)Nc5ccc(C(=O)N6CCN(C(=O)[C@H]7CC[N@+](CC(=O)O)(CC8CNC8)CC7)CC6)c(Cl)c5)n4C)c(C(F)(F)F)n3)ccc2[nH]1` [Example 150, cis-2-[1-(azetidin-3-ylmethyl)-4-[4-[2-chloro-4-[[5-[1-[2-[(1R)-1-hydroxyethyl]-1H-pyrrolo[3,2-b]pyridin-5-yl]-3-(trifluoromethyl)pyrazol-4-yl]-1-methyl-imidazole-2-carbonyl]amino]benzoyl]piperazine-1-carbonyl]piperidin-1-ium-1-yl]acetic acid;formate]: 217 nM; `Cn1c(-c2cn(-c3ccc(N)cn3)nc2C(F)(F)F)cnc1C(=O)Nc1ccc(C(=O)N2CCN(C(=O)[C@H]3CC[N@+](CCCN)(CC(=O)O)CC3)CC2)c(Cl)c1` [Example 48, trans-2-[1-(3-aminopropyl)-4-[4-[4-[[5-[1-(5-amino-2-pyridyl)-3-(trifluoromethyl)pyrazol-4-yl]-1-methyl-imidazole-2-carbonyl]amino]-2-chloro-benzoyl]piperazine-1-carbonyl]piperidin-1-ium-1-yl]acetic acid. 1:1 2,2,2-trifluoroacetate]: 510 nM; `Cn1c(-c2cn(-c3ccc(N)cn3)nc2C(F)(F)F)cnc1C(=O)Nc1ccc(C(=O)N2CCC(C(=O)N3CC[N+](CC(=O)O)(CC4CNC4)CC3)CC2)c(Cl)c1` [Example 87, 2-[4-[1-[4-[[5-[1-(5-amino-2-pyridyl)-3-(trifluoromethyl)pyrazol-4-yl]-1-methyl-imidazole-2-carbonyl]amino]-2-chloro-benzoyl]piperidine-4-carbonyl]-1-(azetidin-3-ylmethyl)piperazin-1-ium-1-yl]acetic acid. 1:1 2,2,2-trifluoroacetate]: 1410 nM.

Take `Cn1c(-c2cn(-c3cc4nn(CC(N)=O)cc4cn3)nc2C(F)(F)F)cnc1C(=O)Nc1ccc(C(=O)N2CCN(C(=O)[C@H]3CC[N@+](CC(=O)O)(CC4CNC4)CC3)CC2)c(Cl)c1` [Example 149, cis-2-[4-[4-[4-[[5-[1-[2-(2-amino-2-keto-ethyl)pyrazolo[4,3-c]pyridin-6-yl]-3-(trifluoromethyl)pyrazol-4-yl]-1-methyl-imidazole-2-carbonyl]amino]-2-chloro-benzoyl]piperazine-1-carbonyl]-1-(azetidin-3-ylmethyl)piperidin-1-ium-1-yl]acetic acid. 1:1 2,2,2-trifluoroacetate]: the IC90 came out at 744 nM. As to `CNc1ccc(-n2cc(-c3cnc(C(=O)Nc4ccc(C(=O)N5CCN(C(=O)C6CC[N+](CC(=O)O)(CC7CNC7)CC6)CC5)c(Cl)c4)n3C)c(C(F)(F)F)n2)cn1` (stereo not drawn) [Example 68, 2-[1-(azetidin-3-ylmethyl)-4-[4-[2-chloro-4-[[1-methyl-5-[1-[6-(methylamino)-3-pyridyl]-3-(trifluoromethyl)pyrazol-4-yl]imidazole-2-carbonyl]amino]benzoyl]piperazine-1-carbonyl]piperidin-1-ium-1-yl]acetic acid. 1:1 2,2,2-trifluoroacetate], the 90% effect concentration (IC90) was 760 nM.

In the case of `Cn1c(-c2cn(-c3cc4c(ccn4CC(N)=O)cn3)nc2C(F)(F)F)cnc1C(=O)Nc1ccc(C(=O)N2CCN(C(=O)[C@H]3CC[N@+](CC(=O)O)(CC4CNC4)CC3)CC2)c(Cl)c1` [Example 168, cis-2-[4-[4-[4-[[5-[1-[1-(2-amino-2-keto-ethyl)pyrrolo[3,2-c]pyridin-6-yl]-3-(trifluoromethyl)pyrazol-4-yl]-1-methyl-imidazole-2-carbonyl]amino]-2-chloro-benzoyl]piperazine-1-carbonyl]-1-(azetidin-3-ylmethyl)piperidin-1-ium-1-yl]acetic Acid.1:1 2,2,2-trifluoroacetate], the IC90 was determined as 555 nM.

Turning to `Cn1c(-c2cn(-c3ccc(N4CCNCC4)cn3)nc2C(F)(F)F)cnc1C(=O)Nc1ccc(C(=O)N2CCN(C(=O)C3CC[N+](CC(=O)O)(CC4CNC4)CC3)CC2)c(Cl)c1` (stereo not drawn) [Example 3, 2-[1-(azetidin-3-ylmethyl)-4-[4-[2-chloro-4-[[1-methyl-5-[1-(5-piperazino-2-pyridyl)-3-(trifluoromethyl)pyrazol-4-yl]imidazole-2-carbonyl]amino]benzoyl]piperazine-1-carbonyl]piperidin-1-ium-1-yl]acetic acid. 1:1 2,2,2-trifluoroacetic acid. 1:1 2,2,2-trifluoroacetate], the IC90 was found to be 390 nM. For `Cn1c(-c2cn(-c3ccc4[nH]c(CCCO)cc4n3)nc2C(F)(F)F)cnc1C(=O)Nc1ccc(C(=O)N2CCN(C(=O)C3CC[N+](CCCN)(CC(=O)O)CC3)CC2)c(Cl)c1` (stereo not drawn) [Example 98, cis-2-[1-(3-aminopropyl)-4-[4-[2-chloro-4-[[5-[1-[2-(3-hydroxypropyl)-1H-pyrrolo[3,2-b]pyridin-5-yl]-3-(trifluoromethyl)pyrazol-4-yl]-1-methyl-imidazole-2-carbonyl]amino]benzoyl]piperazine-1-carbonyl]piperidin-1-ium-1-yl]acetic acid;chloride], the 90% effect concentration (IC90) is 387 nM. Consider `Cn1c(-c2cn(-c3ccc4[nH]c(CCC(N)=O)cc4n3)nc2C(F)(F)F)cnc1C(=O)Nc1ccc(C(=O)N2CCN(C(=O)[C@H]3CC[N@@+](CCCN)(CC(=O)O)CC3)CC2)c(Cl)c1` [Example 99, cis-2-[4-[4-[4-[[5-[1-[2-(3-amino-3-oxo-propyl)-1H-pyrrolo[3,2-b]pyridin-5-yl]-3-(trifluoromethyl)pyrazol-4-yl]-1-methyl-imidazole-2-carbonyl]amino]-2-chloro-benzoyl]piperazine-1-carbonyl]-1-(3-aminopropyl)piperidin-1-ium-1-yl]acetic acid;2,2,2-trifluoroacetate], for which the IC90 came out at 361 nM. `CC(Cn1ccc2nc(-n3cc(-c4cnc(C(=O)Nc5ccc(C(=O)N6CCN(C(=O)[C@H]7CC[N@+](CC(=O)O)(CC8CNC8)CC7)CC6)c(Cl)c5)n4C)c(C(F)(F)F)n3)ccc21)C(N)=O` (stereo partly drawn) [Example 161, 2-[4-[4-[4-[[5-[1-[1-(3-amino-2-methyl-3-oxo-propyl)pyrrolo[3,2-b]pyridin-5-yl]-3-(trifluoromethyl)pyrazol-4-yl]-1-methyl-imidazole-2-carbonyl]amino]-2-chloro-benzoyl]piperazine-1-carbonyl]-1-(azetidin-3-ylmethyl)piperidin-1-ium-1-yl]acetic acid;2,2,2-trifluoroacetate]: the IC90 turned out to be 390 nM. The figure for `Cn1c(-c2cn(-c3ccc(NC[C@@H]4CCCN4)cn3)nc2C(F)(F)F)cnc1C(=O)Nc1ccc(C(=O)N2CCN(C(=O)C3CC[N+](CC(=O)O)(CC4CNC4)CC3)CC2)c(Cl)c1` (stereo partly drawn) [Example 28, 2-[1-(azetidin-3-ylmethyl)-4-[4-[2-chloro-4-[[1-methyl-5-[1-[5-[[(2S)-pyrrolidin-2-yl]methylamino]-2-pyridyl]-3-(trifluoromethyl)pyrazol-4-yl]imidazole-2-carbonyl]amino]benzoyl]piperazine-1-carbonyl]piperidin-1-ium-1-yl]acetic acid. 1:1 2,2,2-trifluoroacetic acid. 1:1 2,2,2-trifluoroacetate] is 360 nM. For `Cn1c(-c2cn(-c3ccc4[nH]c(CO)cc4n3)nc2C(F)(F)F)cnc1C(=O)Nc1ccc(C(=O)N2CCN(C(=O)[C@H]3CC[N@+](CC(=O)O)(CC4CNC4)CC3)CC2)c(F)c1` [Example 151, cis-2-[1-(azetidin-3-ylmethyl)-4-[4-[2-fluoro-4-[[1-methyl-5-[1-(2-methylol-1H-pyrrolo[3,2-b]pyridin-5-yl)-3-(trifluoromethyl)pyrazol-4-yl]imidazole-2-carbonyl]amino]benzoyl]piperazine-1-carbonyl]piperidin-1-ium-1-yl]acetic acid. 1:1 2,2,2-trifluoroacetate], the IC90 is 403 nM. Regarding `Cn1c(-c2cn(-c3ccc(NCCN)cn3)nc2C(F)(F)F)cnc1C(=O)Nc1ccc(C(=O)N2CCN(C(=O)C3CC[N+](CC(=O)O)(CC4CNC4)CC3)CC2)c(Cl)c1` (stereo not drawn) [Example 12, 2-[4-[4-[4-[[5-[1-[5-(2-aminoethylamino)-2-pyridyl]-3-(trifluoromethyl)pyrazol-4-yl]-1-methyl-imidazole-2-carbonyl]amino]-2-chloro-benzoyl]piperazine-1-carbonyl]-1-(azetidin-3-ylmethyl)piperidin-1-ium-1-yl]acetic acid. 1:1 2,2,2-trifluoroacetic acid. 1:1 2,2,2-trifluoroacetate], the IC90 stood at 180 nM. Regarding `Cn1c(-c2cn(-c3ccc(N)cn3)nc2C(F)(F)F)cnc1C(=O)Nc1ccc(C(=O)N2CCN(C(=O)C3CC[N+](CC(=O)O)(CC4CNC4)CC3)C3(CC3)C2)c(Cl)c1` (stereo not drawn) [Example 86, 2-[4-[7-[4-[[5-[1-(5-amino-2-pyridyl)-3-(trifluoromethyl)pyrazol-4-yl]-1-methyl-imidazole-2-carbonyl]amino]-2-chloro-benzoyl]-4,7-diazaspiro[2.5]octane-4-carbonyl]-1-(azetidin-3-ylmethyl)piperidin-1-ium-1-yl]acetic acid. 1:1 formate], the IC90 is 1370 nM.
